According to patent publication US20260337177A1, “TEAD CORE INHIBITORS FOR CANCER THERAPEUTICS” (University of Florida Research Foundation, Incorporated, priority 2023, published 2026):
pIC50: −log10 of the molar value.

Assays:
CYR61 = CYR61 mRNA expression by RT-qPCR in HepG2 cells; assay type: cell-based, human; conditions: dose-dependent
Description: (§1) Huh7 and HepG2 liver cancer cells were seeded at 1×10^6 cells/dish and allowed to adhere overnight. The cells were then treated with indicated doses of compounds in medium for 24 hours. The cells were then harvested, and total RNA was purified using the Aurum total RNA mini kit (Bio-Rad #732-6820) according to the manufacturer's instructions. Complementary DNA was synthesized from 500 ng total RNA template by iScript reverse transcription kit (Bio-Rad #1725037) according to the manufacturer's instructions. Real-time PCR reactions utilized 60 ng cDNA and PrimePCR primers from Bio-Rad (Unique Assay ID: human GAPDH-qHsaCEP0041396, human CTGF-qHsaCEP0024255, human CYR61-qHsaCEP0024230) designed for SYBR Green gene expression analysis (Bio-Rad #1726270). All reactions were carried out in triplicate using Quant Studio 3 PCR system (Applied Biosystems). Relative gene expression level was quantified via ΔΔCt method by using GAPDH as an endogenous reference.

NCI-H226 cells = experiment: NCI-H226 cell growth inhibition (CCK-8, 3 days); assay type: cell-based; conditions: Homo sapiens, NCI-H226, 72 h, NF2-deficient mesothelioma, read-out: Antiproliferative IC50, NCI-H226
Description: The inhibitory effects of compound 22 were assessed against YAP TEAD related NF2-deficient mesothelioma cell NCI-H226 and triple negative breast cancer cell Hs578T. The growth inhibition ratio was measured using a CCK-8 assay after 3 days of treatments.

YAP-TEAD = experiment: Co-immunoprecipitation of endogenous YAP and TEAD in NCI-H226 cells; assay type: cell-based
Description: To assess if compound 22 inhibits the interaction between YAP/TAZ and TEAD proteins within the cell, compound 22 was administered to NF2-deficient NCI-H226 cells for 24 hours. Subsequently, the endogenous TEAD protein was isolated through immunoprecipitation using a pan-TEAD antibody and examined the immunocomplexes for the presence of YAP/TAZ proteins using anti-YAP/TAZ antibodies (as depicted in FIG. 18).
[…] protein lysate extracted using lysis buffer were incubated with 5 μL pan-TEAD antibody (CST #13295, 33 g/ml) at 4 ° C overnight with rotation, and then incubated with 15 μL Protein G magnetic beads (Fisher #88847) at R.T. for 1 hour with rotation. After binding, beads were washed three times with lysis buffer and one time with ddH2O. IP samples were eluted using 1× gel loading buffer supplied with 20 mM DTT and boiled at 96 ° C for 10 min. […] protein lysate were used for input, and 3% IP flow-thru were used for binding efficiency control. *0 indicated DMSO control. For the detection process, primary antibodies used were: YAP/TAZ rabbit monoclonal antibody (mAb) at a dilution of 1:2000, CST #8418S; Pan-TEAD rabbit mAb at 1:2000, CST #13295S; and 3-actin mouse mAb at 1:8000, Sigma #A5316. Secondary antibodies applied in 1× TBST were: Rabbit IgG-HRP at 1:10000 and Mouse IgG-HRP also at 1:10000.

HepG2 cells [1] = experiment: MTT assay, HepG2 survival; assay type: cell-based, human; conditions: FIG. 7
HepG2 cells [2] = experiment: Apoptosis by calcein AM and ethidium homodimer-1 staining, HepG2; assay type: cell-based, human
CTGF = CTGF mRNA expression by RT-qPCR in Huh7 cells; assay type: cell-based, human; conditions: dose-dependent
Description: as §1

Huh7 cells = experiment: Colony formation (clonogenic) assay, Huh7; assay type: cell-based; conditions: Homo sapiens, Huh-7, 48 h, read-out: Colony formation, rate of inhibition, Huh7
Description: The ability of compound 22 to inhibit the proliferation of liver cancer cell lines Huh7 and HepG2 was further assessed using a clonogenic assay.
Huh7 or HepG2 (500 cells/well) were plated into 6 well plates (500 cells per well) and treated with 0 or 5 μM compound 22. Colonies were grown in the absence of soft agar for 2 weeks in a humidified atmosphere of 5% C02 at 37 ° C Crystal violet blue solution (Sigma) was used to stain the colonies for one hour and fixed in methanol followed by counting under a microscope. Triplicate wells were used for each cell line and three independent experiments were performed.

Huh7 xenograft = experiment: Huh7 mouse xenograft model, antitumor efficacy; assay type: in vivo, NSG mouse
Description: Based on the favorable in vitro potency and low toxicity, the in vivo antitumor efficacy of compound 22 was further evaluated in the NSG mouse (NOD scid gamma mouse) xenograft model from human Huh7 cells. Sorafenib, the first-line treatment for primary hepatocellular carcinoma (HCC) patients, served as the control. Compound 22 was tested as a monotherapy and in combination with Sorafenib.
The animals were administered 10 mg/kg of compound 22 twice a week for four weeks via intraperitoneal (IP) injection.
The mice were administered 50 mg/kg of compound 22 every three day for 24 days via intraperitoneal (IP) injection. Sorafenib was administered orally at a dose of 100 mg/kg following the same schedule.
Tumors were implanted by subcutaneous injection of 5×10^6 Huh7 cells in 100 μL of PBS containing 10% matrix gel (Coming, NY, USA), into the right flank of the mouse. When the tumor volume reached about 85 mm^3, mice were randomized into the vehicle control group (n=5) and a treatment group (n=5). The vehicle group (n=5) received the vehicle only (50% phosal 50 PG, 45% miglyol 810 N and 5% polysorbate 80), while the treatment group (n=5) was given compound 22 (50 mg/kg in 50% phosal 50 PG, 45% miglyol 810 N and 5% polysorbate 80) via IP injection every three days. After 24 days, mice were euthanized. Sorafenib (100 mg/kg, every three day) was dissolved in 75% Ethanol and Cremophor EL (1:1) and administered directly into the animals' stomachs using a gastric probe. Tumor size and body weight were measured every 3 days, and tumor volume was estimated using the formula volume=½×length×width^2. Tumor growth inhibition value (TGI) was calculated as TGI (%) [1−Vt/Vc]×100, where Vc and Vt were […].

## O=C(CCl)c1c[nH]c2cc(Cl)c(OCc3cccc(C(F)(F)F)c3)cc12 [Compound 22, 2-chloro-1-(6-chloro-5-((3-(trifluoromethyl)benzyl)oxy)-1H-indol-3-yl)ethan-1-one]
CYR61
  CYR61 mRNA expression, HepG2: significantly inhibited
NCI-H226 cells
  pIC50: 6.40
YAP-TEAD; 1 μM, 24 hours
  Co-IP of YAP with pan-TEAD antibody: significantly diminished
YAP-TEAD; "2.5 M", 24-hour treatment
  Interaction between YAP and TEAD: almost entirely inhibited
HepG2 cells [1]
  HepG2 survival, MTT assay: inhibits
HepG2 cells [2]
  HepG2 cell apoptosis: promotes HepG2 cell apoptosis
CTGF
  CTGF mRNA expression, Huh7: suppressed
CTGF; listed as compound 22
  CTGF mRNA expression, Huh7: significantly inhibited
Huh7 cells
  inhibition at 5 µM: 62.5%
Huh7 xenograft; 10 mg/kg IP twice a week for four weeks
  Tumor growth inhibition (TGI) rate: 78%
Huh7 xenograft; 50 mg/kg IP every three days for 24 days
  Tumor growth inhibition (TGI) rate: 75%
Huh7 xenograft; xenograft mice, FIG. 6C
  Body weight change: No significant change
